Data on 2 compounds can be found in PMC5940854, “Nitrothiophene carboxamides, a novel narrow spectrum antibacterial series: Mechanism of action and Efficacy” (Scientific Reports, 2018).

For assay [1], the system named is E. coli emrE knockout strain. The assay is described as follows: MIC, efflux pump knockout emrE. The assay is classed as cell-based. The following applies: Escherichia coli, read-out: MIC emrE. As for the experimental part:
(§1) The inoculum used for all the experiments is derived from a single seed lot that is maintained as glycerol stocks at −80 °C and are sub cultured on LB plate for isolated colonies. Single colony of each strain is grown in M9 medium. All test compound stocks and dilutions are prepared in DMSO. Serial two-fold dilutions of compounds are prepared separately, with the concentrations ranging from 2 mg/mL to 0.015 mg/mL. To 150 µl (3–7 × 10^5 CFU/ml) of bacterial culture in 96 well microtitre plates, 3 μL compound from each of the dilutions is added to respective wells to obtain final concentrations ranging from 40 µg/mL to 0.3 µg/mL of the test compounds. Media control, culture control and appropriate reference drug controls are included. […] Growth is monitored by checking absorbance at 600 nm (A600). […] The samples from MIC and above concentrations are plated for MBC (Minimum Bactericidal Concentration). The samples are diluted 1:10 and plated on LB agar plates. […] The killing kinetics is determined by enumerating survivors at various time points following compound exposure. E. coli cells (~10^7 CFU/ml; A600 of 0.1) are treated with various concentrations (40 µg/mL to 0.3 µg/mL) of compounds in a 96-well microtitre plate. […] Data is expressed as the log10 CFU for each drug treatment.

The test system of assay [2] is E. coli mdtL knockout strain. Description: MIC, efflux pump knockout mdtL. The assay is classed as cell-based. The note with it: Escherichia coli, read-out: MIC mdtL. On the procedure:
as §1

The test system of assay [3] is E. coli acrZ knockout strain. The assay is described as follows: MIC, efflux pump knockout acrZ. The assay is classed as cell-based. The following applies: Escherichia coli, read-out: MIC acrZ. As for the experimental part: as §1
Assay [4] deals with E. coli mdtK knockout strain. The assay is described as follows: MIC, efflux pump knockout mdtK. The note with it: Escherichia coli, read-out: MIC mdtK. It counts as cell-based. As for the experimental part:
as §1

The subject of assay [5] is E. coli acrF knockout strain. The assay is described as follows: MIC, efflux pump knockout acrF. The note with it: Escherichia coli, read-out: MIC acrF. The assay is classed as cell-based. On the procedure:
as §1

The subject of assay [6] is E. coli emrB knockout strain. The assay is described as follows: MIC, efflux pump knockout emrB. The assay is classed as cell-based. The note with it: Escherichia coli, read-out: MIC emrB. On the procedure: as §1
In assay [7] the test system is WT E. coli. Description: MIC on WT E. coli in the presence of PAβN. The assay is classed as cell-based. The note with it: Escherichia coli. As for the experimental part: as §1
Assay [8] has as its system E. coli mdfA knockout strain. Description: MIC, efflux pump knockout mdfA. The assay is classed as cell-based. The note with it: Escherichia coli, read-out: MIC mdfA. As for the experimental part: as §1
Assay [9] relates to E. coli BW25113. The assay is described as follows: Neutropenic thigh infection, E. coli BW25113. It counts as in vivo, BALB/c mice.
The subject of assay [10] is E. coli ∆acrB JW0451-2. The assay is described as follows: Neutropenic thigh infection, E. coli ∆acrB. It counts as in vivo, BALB/c mice.

Where only a bound is given, the exact number is not on record here.

In the case of `Cc1sc(NC(=O)c2ccc([N+](=O)[O-])s2)nc1-c1ccccc1` [compound 7, N-(5-Methyl-4-phenylthiazol-2-yl)-5-nitrothiophene-2-carboxamide], the MIC in assay [1], in [2], in assay [3], in assay [4], in assay [5] and in assay [6] was over 40 µg/mL in each case. Also, the MIC (in general, the lowest concentration found to suppress growth) in assay [7] is under 0.3 µg/mL; in [8], over 40 µg/mL.
Regarding `O=C(Nc1nc(-c2ccc(F)cc2)cs1)c1ccc([N+](=O)[O-])s1` [compound 15, N-(4-(4-Fluorophenyl)thiazol-2-yl)-5-nitrothiophene-2-carboxamide], the “Log10CFU Mean Diff. vs. Untreated Controls” value in [9] (Study TI-2014-008, BW25113, 30mg/kg per oral) turned out to be 0.9167 Log10CFU; in assay [9] (Study TI-2014-008, BW25113, 100mg/kg per oral), 1.643 Log10CFU; in assay [10] (Study TI-2014-007, ∆acrB JW0451-2, 10mg/kg per oral), 0.2933 Log10CFU; in [10] (Study TI-2014-007, ∆acrB JW0451-2, 30mg/kg per oral), 1.943 Log10CFU; in assay [10] (Study TI-2014-007, ∆acrB JW0451-2, 100mg/kg per oral, 6 hours post treatment), 2.436 Log10CFU; in assay [10] (Study TI-2014-008, ∆acrB JW0451-2, 30mg/kg per oral), 1.497 Log10CFU. Also, in assay [10] (Study TI-2014-008, ∆acrB JW0451-2, 100mg/kg per oral), the “Log10CFU Mean Diff. vs. Untreated Controls” value is listed as 2.253 Log10CFU. In addition, the “efficacy in thigh infection model (in words)” value in assay [9] (WT E. coli BW25113) and in assay [10] (E. coli ∆acrB JW0451-2) was “significantly bactericidal” in each case.
